Source: patent publication US9051349B2, “Larazotide acetate compositions” (Alba Therapeutics Corp., priority 2007, dated 2015)
Converted amounts (≈) assume the structure as drawn. Like-named read-outs stand apart in the source and are kept apart here. Residues, ends and D or L forms follow the SMILES beside them.

Legend:
[1] = 40 C/75% RH, 1 and 2 months
Procedure: An appropriate amount of amorphous larazotide acetate and crystalline larazotide acetate was used for a stability study to evaluate quality parameters (purity, impurities, assay and ID) for these materials under various storage conditions. Data was collected at two time points, namely at 1 month and at 2 months of storage under the conditions tested.
Data was generated for storage of the three larazotide acetate samples stored at 40 C/75% RH. All three samples were analyzed at 1 and 2 months.

physchem [2] = settings: water
Procedure: Solubilities of Larazotide acetate and the corresponding chloride salt in water were tested at 20° C. after 14 hours of vigorous stirring in the presence of residual solid. Concentrations of peptide are measured by standardized HPLC.

[3] = Procedure: The stability of the chloride salt was tested at 25° C. without humidity control (in closed bottles). The stability of the acetate salt was determined at 25° C./60% RH.
physchem [4] = assay: physchem
Procedure: Approximate solubilities of Larazotide acetate Form A in different solvents were determined. Aliquots of the test solvent were added to weighed samples of Larazotide. The samples were sonicated to aid in dissolution. Visual inspection was used to determine if a sample had dissolved. The approximate solubility was calculated from the total amount of solvent added.

[5] = 5% to 95% RH sorption/desorption
Text: Moisture sorption/desorption data were collected on a VTI SGA-100 Vapor Sorption Analyzer. Sorption and desorption data were collected over a range of 5% to 95% relative humidity (RH) at 10% RH intervals under a nitrogen purge. Samples were not dried prior to analysis. Equilibrium criteria used for analysis were less than 0.0100% weight change in five minutes, with a maximum equilibration time of three hours if the weight criterion was not met. Data were not corrected for the initial moisture content of the samples. NaCl and PVP were used as calibration standards.

[6] = 25° C. without humidity control (closed bottles), timepoint 0
[7] = 25° C. without humidity control (closed bottles), timepoint 1
[8] = 25° C. without humidity control (closed bottles), timepoint 2

CC(C)C[C@H](NC(=O)[C@@H](NC(=O)CNC(=O)CN)C(C)C)C(=O)N[C@H](C(=O)N[C@@H](CCC(N)=O)C(=O)N1CCC[C@H]1C(=O)NCC(=O)O)C(C)C [amorphous larazotide acetate] (H-GGVLVQPG-OH)
overall rate of degradation [1]: ~10 % per month

CC(C)C[C@H](NC(=O)[C@@H](NC(=O)CNC(=O)CN)C(C)C)C(=O)N[C@H](C(=O)N[C@@H](CCC(N)=O)C(=O)N1CCC[C@H]1C(=O)NCC(=O)O)C(C)C [Larazotide Chloride] (H-GGVLVQPG-OH)
solubility at 14 h (physchem [2]): ≥ 300000 µg/mL
rate of deamidation ([3]; 25° C. without humidity control (closed bottles)): about 1 %/month
% HPLC Area (purity) [3, 6]: 98.4%
Deamidated “Glu” % HPLC area [3, 6]: 1.06%
% HPLC Area (purity) [3, 7]: 97.8%
Deamidated “Glu” % HPLC area [3, 7]: 1.85%
% HPLC Area (purity) [3, 8]: 96.1%
Deamidated “Glu” % HPLC area [3, 8]: 3.02%

CC(C)C[C@H](NC(=O)[C@@H](NC(=O)CNC(=O)CN)C(C)C)C(=O)N[C@H](C(=O)N[C@@H](CCC(N)=O)C(=O)N1CCC[C@H]1C(=O)NCC(=O)O)C(C)C [Form A] (H-GGVLVQPG-OH)
solubility (physchem [4]; (1:1) DCM/MeOH): < 3000 µg/mL
solubility (physchem [4]; (1:1) Water/ACN): < 3000 µg/mL
solubility (physchem [4]; (1:1) Water/Dioxane): < 3000 µg/mL
solubility (physchem [4]; (1:1) Water/MeOH): < 3000 µg/mL
solubility (physchem [4]; Acetone): < 4000 µg/mL
solubility (physchem [4]; Acetonitrile (ACN)): < 4000 µg/mL
solubility (physchem [4]; Dichloromethane (DCM)): < 4000 µg/mL
solubility (physchem [4]; Dimethyl sulfoxide (DMSO)): < 4000 µg/mL
solubility (physchem [4]; Dioxane): < 4000 µg/mL
solubility (physchem [4]; Ethanol (EtOH)): < 4000 µg/mL
solubility (physchem [4]; Ethyl acetate (EtOAc)): < 4000 µg/mL
solubility (physchem [4]; Methanol (MeOH)): < 4000 µg/mL
solubility (physchem [4]; Tetrahydrofuran (THF)): < 4000 µg/mL
solubility (physchem [4]; Trifluoroethanol (TFE)): 4000 µg/mL (≈ 5.51 mM)
solubility (physchem [4]; water): 8000 µg/mL (≈ 11 mM)
solid form by XRPD following the moisture sorption experiment [5]: still Form A

CC(C)C[C@H](NC(=O)[C@@H](NC(=O)CNC(=O)CN)C(C)C)C(=O)N[C@H](C(=O)N[C@@H](CCC(N)=O)C(=O)N1CCC[C@H]1C(=O)NCC(=O)O)C(C)C [Larazotide Acetate] (H-GGVLVQPG-OH)
rate of deamidation ([3]; 25° C./60% RH): about 0.05 %/month
% HPLC Area (purity) ([3]; 25° C./60% RH, timepoint 0): 98.7%
Deamidated “Glu” % HPLC area ([3]; 25° C./60% RH, timepoint 0): 0.19%
% HPLC Area (purity) ([3]; 25° C./60% RH, timepoint 1): 98.4%
Deamidated “Glu” % HPLC area ([3]; 25° C./60% RH, timepoint 1): 0.22%
% HPLC Area (purity) ([3]; 25° C./60% RH, timepoint 2): 98.2%
Deamidated “Glu” % HPLC area ([3]; 25° C./60% RH, timepoint 2): 0.26%
% HPLC Area (purity) ([3]; 25° C./60% RH, timepoint 3): 97.7%
Deamidated “Glu” % HPLC area ([3]; 25° C./60% RH, timepoint 3): 0.40%
% HPLC Area (purity) ([3]; 25° C./60% RH, timepoint 6): 96.1%
Deamidated “Glu” % HPLC area ([3]; 25° C./60% RH, timepoint 6): 0.60%
